Test results from patent publication US20070259856A1, “Method for Activating Trpv4 Channel Receptors by Agonists” (priority 2004, published 2007).
Marks after values point to notes of the source that are not given here.

Columns and labels:
[1] = tested on: bovine articular cartilage explants; test: IL-1 induced collagen degradation (hydroxyproline) in bovine articular cartilage explants; assay type: cell-based
Protocol: IL-1 stimulates collagen degradation in bovine articular cartilage explants after extended (−2-3 weeks) exposure to IL-1. Collagen breakdown was evaluated by measuring the levels of hydroxyproline, a major component of hydrolyzed collagen fibrils, using a colorimetric assay that is understood in the art. Bovine articular cartilage was stimulated with IL-1 for 18 days, in the absence or presence of Formula Ib or Formula IId (both at 1 uM). Media was removed and replaced every 2-4 days with fresh IL-1 and compound through day 18. As has been shown previously, aggrecan degradation precedes collagen breakdown in IL-1-stimulated bovine cartilage explants. Once aggrecan depletion had been achieved by day 10, media were analyzed for collagen breakdown using the hydroxyproline assay.

human cartilage explants = test: Aggrecan degradation (GAG, DMMB) in human cartilage explants; assay type: cell-based; conditions: for GAG Mean ± SEM: cumulative, 21 days
Protocol: Because the progression of aggrecan degradation in response to IL-1 in human cartilage is slower than in bovine cartilage, culture media was removed and replaced with fresh treatments every 2-3 days for approximately 3 weeks. For each timepoint, GAG levels were measured by DMMB assay, and cumulative data released over the entire 3 week culture period was calculated.
The data represents cumulative aggrecan degradation after 21 days in culture. […] In addition, Formula IId caused a concentration-dependent reduction of IL-1-induced aggrecan degradation. […] The estimated IC50's shown in Table 7 are very similar to those IC50's calculated from IL-1-stimulated bovine cartilage.

TRPV4 channel receptor [2] = target: T1, TRPV4 channel receptor (Homo sapiens, UniProt Q9HBA0); test: Ca2+ influx in human articular chondrocytes (FlexStation)
T1 sequence (Q9HBA0 whole entry): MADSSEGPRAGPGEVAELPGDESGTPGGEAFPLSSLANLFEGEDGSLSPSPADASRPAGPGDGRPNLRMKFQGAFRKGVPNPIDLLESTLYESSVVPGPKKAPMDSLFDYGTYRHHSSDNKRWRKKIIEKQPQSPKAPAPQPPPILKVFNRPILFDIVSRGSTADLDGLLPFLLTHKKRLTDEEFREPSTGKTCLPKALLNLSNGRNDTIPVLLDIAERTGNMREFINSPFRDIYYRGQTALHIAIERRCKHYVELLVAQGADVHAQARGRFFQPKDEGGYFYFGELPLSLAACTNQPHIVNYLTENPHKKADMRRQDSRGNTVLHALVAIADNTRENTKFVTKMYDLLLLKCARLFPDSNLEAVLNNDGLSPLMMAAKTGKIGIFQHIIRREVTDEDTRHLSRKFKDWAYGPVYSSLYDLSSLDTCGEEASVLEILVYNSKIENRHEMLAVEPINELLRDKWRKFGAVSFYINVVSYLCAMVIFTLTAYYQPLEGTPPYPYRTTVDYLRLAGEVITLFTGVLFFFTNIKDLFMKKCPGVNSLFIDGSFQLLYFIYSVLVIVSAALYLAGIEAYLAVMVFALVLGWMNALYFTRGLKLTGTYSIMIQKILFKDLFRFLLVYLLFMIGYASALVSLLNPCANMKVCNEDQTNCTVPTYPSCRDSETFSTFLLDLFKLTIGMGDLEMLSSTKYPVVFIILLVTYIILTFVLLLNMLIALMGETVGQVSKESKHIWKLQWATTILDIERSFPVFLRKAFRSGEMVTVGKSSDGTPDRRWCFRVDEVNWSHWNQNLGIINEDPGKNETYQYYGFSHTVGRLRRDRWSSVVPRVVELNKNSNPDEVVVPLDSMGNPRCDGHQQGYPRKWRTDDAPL

[3] = tested on: HEK293 MSRII cells without human TRPV4 vector; test: Whole cell patch clamp, HEK293 MSRII cells exposed to BacMam virus alone; assay type: cell-based; conditions: 3 μM
[4] = tested on: bovine articular cartilage explants; test: IL-1 induced aggrecan degradation (GAG release, DMMB) in bovine articular cartilage explants; assay type: cell-based; conditions: Bos taurus; IL-1-stimulated bovine cartilage
From the text: Articular cartilage explants isolated from newborn calves at slaughter were placed in culture, and aggrecan degradation was initiated through stimulation with IL-1. Since aggrecan degradation in this model is believed to be mediated by aggrecanase, TRPV4 channel receptor agonists that are active in the chondrocyte-based aggrecanase peptide assay (Example 11) may also be effective inhibitors in the cartilage explant assay, presumably by blocking aggrecanase production in these tissues.
At the end of the culture period, conditioned media were assayed for glycosaminoglycan (GAG) levels by colorimetric (DMMB) assay as a measure of aggrecan degradation. In bovine explants, IL-1 induced a profound increase in the amount of GAG released into the media during the 3 day culture. When cartilage was treated with IL-1 in combination with Formula IIc, there was a concentration-dependent reduction in GAG release as shown in Table 5.

aggrecanase = test: IL-1 induced aggrecanase production, chondrocyte-based aggrecanase peptide cleavage assay; assay type: cell-based, bovine; conditions: Bos taurus
From the text: Aggrecanases (ADAMTSs), in conjunction with MMPs, degrade aggrecan, one of the major matrix components in articular cartilage. […] 2003; 48(1): 119-133].

TRPV4 channel receptor [5] = target: T2, TRPV4 channel receptor (Bos taurus, UniProt A0A8F4X677); test: Ca2+ influx in bovine articular chondrocytes (FlexStation); assay type: cell-based; conditions: bovine chondrocytes
T2 construct: endogenous in cells; host or cells: bovine articular chondrocytes
T2 sequence (A0A8F4X677 1-871): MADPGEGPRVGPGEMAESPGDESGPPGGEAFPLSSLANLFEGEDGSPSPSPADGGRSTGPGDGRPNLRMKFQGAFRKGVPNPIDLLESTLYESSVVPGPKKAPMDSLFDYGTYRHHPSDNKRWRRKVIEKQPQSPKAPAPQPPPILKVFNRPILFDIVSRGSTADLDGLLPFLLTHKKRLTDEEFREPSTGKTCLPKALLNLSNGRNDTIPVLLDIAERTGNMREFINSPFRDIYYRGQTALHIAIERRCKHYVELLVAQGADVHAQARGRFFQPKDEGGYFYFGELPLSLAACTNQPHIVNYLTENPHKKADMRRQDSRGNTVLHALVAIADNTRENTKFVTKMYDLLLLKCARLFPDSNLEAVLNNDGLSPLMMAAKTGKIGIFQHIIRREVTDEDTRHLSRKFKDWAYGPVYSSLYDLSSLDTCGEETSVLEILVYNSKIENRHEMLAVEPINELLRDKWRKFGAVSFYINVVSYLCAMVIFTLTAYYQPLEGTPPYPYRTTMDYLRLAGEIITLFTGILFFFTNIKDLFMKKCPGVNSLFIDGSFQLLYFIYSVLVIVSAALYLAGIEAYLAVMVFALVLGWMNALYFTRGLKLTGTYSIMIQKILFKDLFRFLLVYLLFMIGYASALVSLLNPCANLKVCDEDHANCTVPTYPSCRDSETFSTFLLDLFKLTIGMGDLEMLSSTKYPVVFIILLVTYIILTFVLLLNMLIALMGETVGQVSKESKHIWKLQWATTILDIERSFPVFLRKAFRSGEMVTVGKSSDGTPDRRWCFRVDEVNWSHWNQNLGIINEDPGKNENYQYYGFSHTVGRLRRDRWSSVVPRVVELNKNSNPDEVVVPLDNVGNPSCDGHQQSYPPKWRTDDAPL

TRPV4 channel receptor [6] = target: T1, TRPV4 channel receptor; test: Whole cell patch clamp, HEK293 MSRII cells transduced with human TRPV4 BacMam virus; assay type: cell-based; design: V5-His (from the vector's name only); expressed in transfected cells; host or cells: HEK293
From the text: Functional, cell-based assays presently utilized to evaluate the activity of TRPV4 channel receptor agonists (e.g., FLIPR) provide an indirect, downstream measure of channel activation or blockage. In order to more directly evaluate a compound's effect on TRPV4 channel receptor, procedures to electrophysiologically record current flow through TRPV4 channels have been established. These procedures utilize HEK293 MSRII cells transiently transduced with 5% human TRPV4 BacMam virus, a standard extracellular physiological saline solution, and a well established, potassium channel-blocking electrode (internal) solution (Vriens et al., PNAS, 2004). Standard whole cell patch clamp techniques were used to maintain cells at a holding potential of 0 mV between inductions of 200 msec, −100 mV to +100 mV ramp protocols every 5 seconds. The inset of FIG. 1 represents the inward and outward current amplitude at −100 mV and +100 mV, respectively, during each ramp protocol prior to (baseline) and throughout the administration of 100 nM Formula IId. The main body of FIG. 1 illustrates the recorded current flow in response to a −100 mV to +100 mV ramp at the five specific times labelled in the inset.

EC50 (TRPV4 channel receptor [2]; Ca Influx - FLEX (human) EC50, human chondrocytes): 110 nM
Ca Influx - FLEX (human) % effic. (TRPV4 channel receptor [2]; human chondrocytes): 179%
IC50 (aggrecanase): 40 nM
Ca Influx - FLEX (bovine) % effic. (TRPV4 channel receptor [5]): 79%
EC50 (TRPV4 channel receptor [5]; read-out: Ca Influx - FLEX (bovine) EC50): 120 nM
TRPV4 channel receptor-mediated current (TRPV4 channel receptor [6]; 100 nM, -100 mV to +100 mV ramp): activated a human TRPV4 channel receptor
lowest concentration observed to activate the human TRPV4 channel receptor (TRPV4 channel receptor [6]; whole cell patch clamp): 10 nM
SMILES: CC(C)C[C@H](NC(=O)c1cc2ccccc2s1)C(=O)N[C@@H]1CCCN(S(=O)(=O)c2ccccc2C#N)CC1=O [Formula IId, N-{(1s)-1-[({(4r)-1-[(2-Cyanophenyl)Sulfonyl]-3-Oxohexahydro-1H-Azepin-4-Yl}Amino)Carbonyl]-3-Methylbutyl}-1-Benzothiophene-2-Carboxamide]
block of IL-1-induced collagen degradation [1]: partially, but effectively, blocked
inhibition at 0.01 µM (human cartilage explants; Homo sapiens, IL-1 (100 ng/ml), 0.01 uM, relative to IL-1 stim. GAG release): 35%
inhibition at 0.1 µM (human cartilage explants; Homo sapiens, IL-1 (100 ng/ml), 0.1 uM, relative to IL-1 stim. GAG release): 89%
inhibition at 1 µM (human cartilage explants; Homo sapiens, IL-1 (100 ng/ml), 1 uM, relative to IL-1 stim. GAG release): > 100%
inhibition at 0.01 µM (human cartilage explants; Homo sapiens, unstimulated, 0.01 uM, relative to control GAG release): 12%
inhibition at 0.1 µM (human cartilage explants; Homo sapiens, unstimulated, 0.1 uM, relative to control GAG release): 34%
inhibition at 1 µM (human cartilage explants; Homo sapiens, unstimulated, 1 uM, relative to control GAG release): 45%
IC50 (human cartilage explants; Homo sapiens, estimated, 3-point concentration response): 30 nM
GAG Mean ± SEM (human cartilage explants; IL-1 (100 ng/ml), 0.01 uM): 15.9 ± 1.6 µg/mg
GAG Mean ± SEM (human cartilage explants; IL-1 (100 ng/ml), 0.1 uM): 8.2 ± 0.5 µg/mg
GAG Mean ± SEM (human cartilage explants; IL-1 (100 ng/ml), 1 uM): 4.8 ± 0.5 µg/mg
% inhibition (human cartilage explants; IL-1 (100 ng/ml), 1 uM, relative to IL-1 stim. GAG release): 113** %
blocking of aggrecan degradation in unstimulated human cartilage explants (human cartilage explants; absence of IL-1): effective in blocking aggrecan degradation
GAG Mean ± SEM (human cartilage explants; unstimulated control, 0.01 uM): 5.9 ± 0.3 µg/mg
GAG Mean ± SEM (human cartilage explants; unstimulated control, 0.1 uM): 4.4 ± 0.2 µg/mg
GAG Mean ± SEM (human cartilage explants; unstimulated control, 1 uM): 3.7 ± 0.3 µg/mg
effect on membrane currents [3]: no measurable effect
IC50 [4]: 10 nM
